# Values quoted from earlier work as cited in patent publication US9333174B2, “Use of simple amino acids to form porous particles” (Civitas Therapeutics, Inc., priority 1999, dated 2016).
# Conditions: hydrophobicity scale on which glycine has the value 0.5; value of the amino acid itself
row,hydrophobicity,SMILES
1,0.943,CC[C@H](C)[C@H](N)C(=O)O [Isoleucine]
2,0.501,N[C@@H](Cc1ccccc1)C(=O)O [Phenylalanine]
3,0.5,NCC(=O)O [glycine]

row,SMILES,hydrophobicity
1,N[C@@H](CCC(=O)O)C(=O)O [Glutamate],0.043
